# Source: patent US12729377B2, “RNAi agents and compositions for inhibiting expression of angiopoietin-like 3 (ANGPTL3), and methods of use” (Arrowhead Pharmaceuticals, Inc., priority 2017, dated 2026)
# In the oligonucleotide strings, read from the 5' end, every base follows the letter of its sugar. An asterisk marks phosphorothioate; unmarked linkages are phosphodiester. Other units and linkages are bracketed, terminal groups are in braces. A string of capitals states the bases alone. {NAG37} = tridentate N-acetyl-galactosamine targeting ligand, structure (NAG37)s; [invAb] = inverted abasic unit; m = 2'-O-methyl; f = 2'-fluoro
# How the values were obtained:
# ANGPTL3 protein = experiment: Example 10: serum ANGPTL3 protein by ELISA in mice; format: in vivo; settings: 0.5 mg/kg single SC injection day 1, female C57bl/6 mice, n=3, ratio to D5W control
# Description: To assess the in vivo activity of further ANGPTL3 RNAi agents that are designed to target position 304 on the ANGPTL3 gene, six- to eight-week-old female C57bl/6 mice were used. Pre-dose serum samples were taken at day −1 after a four hour fast. At day 1, each mouse was given a single subcutaneous administration of 200 μl containing 0.5 mg/kg (mpk) of an ANGPTL3 RNAi agent in D5W (dextrose in 5% water), or control (D5W) with no RNAi agent, according to the dosing groups recited in Table 47.
# Each of the RNAi agents included a modified sequence and an N-acetyl-galactosamine-containing targeting ligand conjugated to the 5′ terminal end of the sense strand. (See Tables 3, 4, and 5 for modified sequences and targeting ligand structures). As noted above, each of the ANGPTL3 RNAi agents dosed in this study included nucleotide sequences designed to target the ANGPTL3 gene at position 304. The injections were performed between the skin and muscle (i.e. subcutaneous injections) into the loose skin over the neck and shoulder area. Three (3) mice in each group were tested (n=3). Serum was collected on days 8, 15, 22, 29, and for some groups on day 36 (i.e., Groups 1, 2, and 9-13 only). Mice were fasted for four hours prior to each collection. ANGPTL3 protein levels in serum were measured by ELISA assay (R&D Systems), according to the manufacturer's recommendations. Triglycerides, total cholesterol, high-density lipoprotein (HDL), and low-density lipoprotein (LDL) in serum were measured on a Cobas® Integra 400 (Roche Diagnostics), according to the manufacturer's recommendations.
# (§1) The ANGPTL3 protein levels, triglyceride levels, total cholesterol levels, HDL levels, and LDL levels for each animal were normalized. For normalization, the level of ANGPTL3 protein, triglyceride, HDL, and total cholesterol, respectively, for each animal at a time point, was divided by the pre-treatment level of expression in that animal (in this case at day −1) to determine the ratio of expression “normalized to pre-treatment.” Expression at a specific time point was then normalized to the D5W control group by dividing the “normalized to pre-treatment” ratio for an individual animal by the mean “normalized to pretreatment” ratio of all mice in the D5W control group.
# ANGPTL3 gene [1] = experiment: Example 11: dose response, serum LDL in mice; format: in vivo, C57bl/6 mice
# Description: To assess the dose response of ANGPTL3 RNAi agent AD05488, six- to eight-week-old female C57bl/6 mice were used. Pre-dose serum samples were taken at day −1 after a four hour fast. At day 1, each mouse was given a single subcutaneous administration of 200 μl containing the respective mg/kg dose of an ANGPTL3 RNAi agent in D5W (dextrose in 5% water), or control (D5W) with no RNAi agent, according to the dosing groups recited in Table 53:
# The RNAi agent tested (AD05488) included a modified sequence and an N-acetyl-galactosamine-containing targeting ligand conjugated to the 5′ terminal end of the sense strand. (See Tables 3, 4, and 5 for modified sequences and targeting ligand structures). The injections were performed between the skin and muscle (i.e. subcutaneous injections) into the loose skin over the neck and shoulder area. Four (4) mice in each group were tested (n=4). Serum was collected on days 8, 15, 22, and 29. Mice were fasted for four hours prior to each collection. ANGPTL3 protein levels in serum were measured by ELISA assay (R&D Systems), according to the manufacturer's recommendations. Triglycerides, total cholesterol, high-density lipoprotein (HDL), and low-density lipoprotein (LDL) in serum were measured on a Cobas® Integra 400 (Roche Diagnostics), according to the manufacturer's recommendations.
# as §1
# ANGPTL3 gene [2] = experiment: Example 13: serum triglycerides in HFCS diet-fed Rhesus monkeys; format: in vivo; settings: for Avg TG (Triglycerides) Normalized to Pre-Treatment (Fasted): 4.0 mg/kg sc on day 1 and day 29
# Description: ANGPTL3 RNAi agent AD05488 was further evaluated in high-fructose corn syrup (HFCS) diet-fed Rhesus monkeys. Rhesus monkeys were placed on an HFCS diet 37 days prior to dosing. These animals were known to develop increased plasma triglycerides greater than 180 mg/dL on the HFCS diet. On day 1 and again on day 29, four (4) Rhesus monkeys were administered a subcutaneous injection containing 4.0 mg/kg of ANGPTL3 RNAi agent AD05488 formulated in saline (n=4). Two additional Rhesus monkeys were administered normal saline control.
# Fasted blood samples were drawn for analysis, and serum samples were analyzed on days-8 (predose), 8, 15, 21, 29, and 36. ANGPTL3 expression levels, triglycerides, total cholesterol, high-density lipoprotein (HDL), and low-density lipoprotein (LDL) in serum were measured on a Cobas® Integra 400 (Roche Diagnostics), according to the manufacturer's recommendations.
# The ANGPTL3 protein levels, triglyceride levels, total cholesterol levels, HDL levels, and LDL levels for each animal were normalized. For normalization, the level of ANGPTL3 protein, triglyceride, HDL, and total cholesterol, respectively, for each animal at a time point, was divided by the pre-treatment level of expression in that animal (in this case at day −8) to determine the ratio of expression “normalized to pre-treatment.”
substance,measurement,setting,value
"AD05488: RNAi agent duplex: antisense AM07235-AS, sense AM07234-SS (antisense mU*fA*mC*fUmGfAmUfCmAfAmAfUmAfUmGfUmUfGmAfG*mC; sense {NAG37}*[invAb]*mGmCmUmCmAmAmCmAfUfAfUmUmUmGmAmUmCmAmGmUmA*[invAb])",Average ANGPTL3 Protein Normalized to Pre-Treatment and Control,ANGPTL3 protein; Day 8,0.179
same,Average ANGPTL3 Protein Normalized to Pre-Treatment and Control,ANGPTL3 protein; Day 15,0.197
same,Average ANGPTL3 Protein Normalized to Pre-Treatment and Control,ANGPTL3 protein; Day 22,0.196
same,Average ANGPTL3 Protein Normalized to Pre-Treatment and Control,ANGPTL3 protein; Day 29,0.258
same,Average ANGPTL3 Protein Normalized to Pre-Treatment and Control,ANGPTL3 protein; Day 36,0.297
same,Avg LDL Normalized to Pre-Treatment and Control,"ANGPTL3 gene [1]; 0.05 mg/kg single sc day 1, Day 8",0.798
same,Avg LDL Normalized to Pre-Treatment and Control,"ANGPTL3 gene [1]; 0.05 mg/kg single sc day 1, Day 15",1.147
same,Avg LDL Normalized to Pre-Treatment and Control,"ANGPTL3 gene [1]; 0.05 mg/kg single sc day 1, Day 22",0.772
same,Avg LDL Normalized to Pre-Treatment and Control,"ANGPTL3 gene [1]; 0.05 mg/kg single sc day 1, Day 29",0.822
same,Avg LDL Normalized to Pre-Treatment and Control,"ANGPTL3 gene [1]; 0.1 mg/kg single sc day 1, Day 8",0.878
same,Avg LDL Normalized to Pre-Treatment and Control,"ANGPTL3 gene [1]; 0.1 mg/kg single sc day 1, Day 15",1.153
same,Avg LDL Normalized to Pre-Treatment and Control,"ANGPTL3 gene [1]; 0.1 mg/kg single sc day 1, Day 22",0.732
same,Avg LDL Normalized to Pre-Treatment and Control,"ANGPTL3 gene [1]; 0.1 mg/kg single sc day 1, Day 29",0.845
same,Avg LDL Normalized to Pre-Treatment and Control,"ANGPTL3 gene [1]; 0.5 mg/kg single sc day 1, Day 8",0.816
same,Avg LDL Normalized to Pre-Treatment and Control,"ANGPTL3 gene [1]; 0.5 mg/kg single sc day 1, Day 15",1.137
same,Avg LDL Normalized to Pre-Treatment and Control,"ANGPTL3 gene [1]; 0.5 mg/kg single sc day 1, Day 22",0.866
same,Avg LDL Normalized to Pre-Treatment and Control,"ANGPTL3 gene [1]; 0.5 mg/kg single sc day 1, Day 29",0.896
same,Avg LDL Normalized to Pre-Treatment and Control,"ANGPTL3 gene [1]; 1.0 mg/kg single sc day 1, Day 8",0.760
same,Avg LDL Normalized to Pre-Treatment and Control,"ANGPTL3 gene [1]; 1.0 mg/kg single sc day 1, Day 15",1.145
same,Avg LDL Normalized to Pre-Treatment and Control,"ANGPTL3 gene [1]; 1.0 mg/kg single sc day 1, Day 22",0.993
same,Avg LDL Normalized to Pre-Treatment and Control,"ANGPTL3 gene [1]; 1.0 mg/kg single sc day 1, Day 29",1.123
same,Avg LDL Normalized to Pre-Treatment and Control,"ANGPTL3 gene [1]; 2.5 mg/kg single sc day 1, Day 8",0.805
same,Avg LDL Normalized to Pre-Treatment and Control,"ANGPTL3 gene [1]; 2.5 mg/kg single sc day 1, Day 15",1.185
same,Avg LDL Normalized to Pre-Treatment and Control,"ANGPTL3 gene [1]; 2.5 mg/kg single sc day 1, Day 22",0.915
same,Avg LDL Normalized to Pre-Treatment and Control,"ANGPTL3 gene [1]; 2.5 mg/kg single sc day 1, Day 29",0.814
same,Avg LDL Normalized to Pre-Treatment and Control,"ANGPTL3 gene [1]; 5.0 mg/kg single sc day 1, Day 8",0.802
same,Avg LDL Normalized to Pre-Treatment and Control,"ANGPTL3 gene [1]; 5.0 mg/kg single sc day 1, Day 15",1.170
same,Avg LDL Normalized to Pre-Treatment and Control,"ANGPTL3 gene [1]; 5.0 mg/kg single sc day 1, Day 22",0.909
same,Avg LDL Normalized to Pre-Treatment and Control,"ANGPTL3 gene [1]; 5.0 mg/kg single sc day 1, Day 29",0.932
same,reductions in triglyceride levels,"ANGPTL3 gene [2]; 4.0 mg/kg on days 1 and 29, HFCS diet-fed Rhesus monkeys",reductions
same,Avg TG (Triglycerides) Normalized to Pre-Treatment (Fasted),ANGPTL3 gene [2]; Day 8,0.351
same,Avg TG (Triglycerides) Normalized to Pre-Treatment (Fasted),ANGPTL3 gene [2]; Day 15,0.244
same,Avg TG (Triglycerides) Normalized to Pre-Treatment (Fasted),ANGPTL3 gene [2]; Day 21,0.233
same,Avg TG (Triglycerides) Normalized to Pre-Treatment (Fasted),ANGPTL3 gene [2]; Day 29,0.302
same,Avg TG (Triglycerides) Normalized to Pre-Treatment (Fasted),ANGPTL3 gene [2]; Day 36,0.177
